Values quoted from earlier work, collected in patent US20200316072A1, “COMPOUNDS FOR USE IN REGULATING FOLLICLE MATURATION” (AARHUS UNIVERSITET, priority 2017, published 2020).

Tested on: IGF/Akt/mTOR signaling pathway
Details: stated as prior knowledge on the DPP4 inhibitor; test system not given

For `CC#CCn1c(N2CCC[C@@H](N)C2)nc2c1c(=O)n(Cc1nc(C)c3ccccc3n1)c(=O)n2C` [Linagliptin, 8-[(3R)-3-aminopiperidin-1-yl]-7-but-2-ynyl-3-methyl-1-[(4-methylquinazolin-2-yl)methyl]purine-2,6-dione], the “phosphorylated protein expression of IGF/Akt/mTOR signaling pathway” value is listed as “alleviated”.
